Laboratory results as given in patent US20250197398A1, “Varenicline Related Compounds and Methods for Treating Diseases and Conditions Including Tobacco Use Disorder” (SpaceRX LLC, priority 2022, published 2025).

system: anxiety-like behavior in mice; assay: Open field assay after oral compound administration; assay type: in vivo; conditions: varenicline 1.5 and 4.5 mpk, FIG. 5
Text: FIG. 5 is a bar graph illustrating open field responses to oral administration of compounds.
Varenicline also influenced the mobility and anxiety-like behavior in mice.

Structure (SMILES)	anxiety-like behavior: time spent in center of open field
c1cnc2cc3c(cc2n1)[C@@H]1CNC[C@H]3C1 [varenicline]	dramatically reduced time in the middle
N[C@@H](Cc1ccc(OC(=O)N2CC3CC(C2)c2cc4nccnc4cc23)cc1)C(=O)O [Varenicline-CBT]	not observed

Second part, the molecule after the results:

anxiety-like behavior: time spent in center of open field	Structure (SMILES)
not observed	NCC(=O)N1CC2CC(C1)c1cc3nccnc3cc12 [Varenicline Glycinamide]
not observed	O=C(N[C@@H](CO)C(=O)O)c1ccc[n+](COC(=O)N2CC3CC(C2)c2cc4nccnc4cc23)c1 [Servarenicline Chloride]

system: nicotine-induced dopamine signaling in the striatum; assay: Nicotine-evoked striatal dopamine release after compound pretreatment (GRAB-DA sensor, fiber photometry); assay type: in vivo; conditions: awake mice pretreated with compound; IP nicotine 2 hours later; mean dopamine response for 30 minutes following nicotine; varenicline 1.5 and 4.5 mpk; FIG. 2A-2C
Text: (§1) FIG. 1A-FIG. 1B are a schematic and a response curve illustrating the monitoring of striatal dopamine in the awake behaving animal in response to varenicline. […] Scale bar, 200 μm.
FIG. 2A-FIG. 2C are bar graphs and a response curve illustrating the striatal dopamine responses to nicotine. […] FIGS. 2B-2C show exemplary traces and quantification of striatal dopamine responses preceding and following an IP administration of nicotine. Mice were pretreated either with Varenicline (light grey) or Varenicline-Encarbil (dark grey).
(§2) The ability of varenicline to decrease nicotine use comes from the ability to block nicotine-induced dopamine signaling in the striatum. Real-time sensing of dopamine levels in awake and behaving mice was measured using a fluorescent dopamine sensor (GRAB-DA) and fluorometric measurements of that sensor (Fiber Photometry).

Structure (SMILES)	efficacy at reducing the nicotine-evoked release of dopamine
c1cnc2cc3c(cc2n1)[C@@H]1CNC[C@H]3C1 [varenicline]	regardless the dose of varenicline, the response to nicotine 2 hours later is the same
O=C(N[C@@H](CO)C(=O)O)c1ccc[n+](COC(=O)N2CC3CC(C2)c2cc4nccnc4cc23)c1 [Servarenicline Chloride]	better efficacy when compared directly to varenicline
CC(OC(=O)C(C)C)OC(=O)N1CC2CC(C1)c1cc3nccnc3cc12 (stereo not drawn) [Varenicline-Encarbil]	better efficacy when compared directly to varenicline

system: striatal dopamine levels; assay: Striatal dopamine response to oral compound administration (GRAB-DA sensor, fiber photometry); assay type: in vivo; conditions: awake mice; mean for 30 minutes following compound administration; varenicline 1.5 and 4.5 mpk; FIG. 3A-3B
Text: as §1
FIG. 3A-FIG. 3B are a bar graph and a response curve illustrating the striatal dopamine responses to oral compound administration.
as §2

Structure (SMILES)	striatal dopamine response following oral administration of compound
c1cnc2cc3c(cc2n1)[C@@H]1CNC[C@H]3C1 [varenicline]	increased striatal dopamine levels after administration
NCC(=O)N1CC2CC(C1)c1cc3nccnc3cc12 [Varenicline Glycinamide]	do not lead to dopamine release
N[C@@H](Cc1ccc(OC(=O)N2CC3CC(C2)c2cc4nccnc4cc23)cc1)C(=O)O [Varenicline-CBT]	do not lead to dopamine release
O=C(N[C@@H](CO)C(=O)O)c1ccc[n+](COC(=O)N2CC3CC(C2)c2cc4nccnc4cc23)c1 [Servarenicline Chloride]	do not lead to dopamine release
CC(OC(=O)C(C)C)OC(=O)N1CC2CC(C1)c1cc3nccnc3cc12 (stereo not drawn) [Varenicline-Encarbil]	mimic the effects of varenicline
